Source: patent US20040102361A1, “Pharmaceutical composition for the treatment of pulmonary arterial hypertension” (priority 2002, published 2004)
Structures can show the parent of a compound that is named as a salt.

Legend:
[1] = tested on: patients with severe pulmonary arterial hypertension; experiment: Clinical trial AC-052-355: hemodynamic efficacy, change from baseline to week 16; assay type: in vivo; conditions: change from baseline at week 16
Method: (§1) This was a double-blind, randomized, placebo-controlled study to assess the effects of bosentan on hemodynamics, safety and tolerability in patients with severe pulmonary arterial hypertension when combined with the initiation of epoprostenol therapy.
(§2) Study design: The duration of the study was 16 weeks, 2:1 bosentan:placebo randomization. All patients received the starting epoprostenol dose of 2 ng/kg/min for 2 days, then they were randomized to receive either bosentan or placebo. Every 2 weeks thereafter, epoprostenol was increased by 2 ng/kg/min up to the target dose of 14±2 ng/kg/min by week 16. All patients received epoprostenol together with either bosentan or placebo for 16 weeks. Hemodynamic assessments were performed at baseline (prior to start of therapy) and again after 16 weeks of therapy. Safety monitoring was performed throughout the study duration.
Primary endpoint: Percent change from baseline in total pulmonary resistance (TPR) to week 16. The sample size was estimated for an expected mean difference in TPR of 28%.
(§3) Secondary endpoints: Changes from baseline to week 16 in CI (Cardiac Index), PVR (Pulmonary Vascular Resistance), […] (mean pulmonary arterial pressure), and mRAP (mean right atrial pressure); changes from baseline to week 16 in walk distance (6-min walk test), dyspnea fatigue rating, WHO functional class; and safety and tolerability.
(§4) Thirty-three patients entered the study: 11 patients received epoprostenol alone, while 22 patients received bosentan with epoprostenol.
In Table 1 the results are expressed as changes from baseline at week 16. Mean±SD (standard deviation) and median change (in brackets).

[2] = tested on: patients with severe pulmonary arterial hypertension; experiment: Clinical trial AC-052-355: vital signs (systolic blood pressure, heart rate), change from baseline to week 16; conditions: human, in vivo
Method: as §1, §2, §3, §4

[3] = tested on: patients with severe pulmonary arterial hypertension; experiment: Clinical trial AC-052-355: treatment emergent adverse events; assay type: in vivo; conditions: 16 weeks
Method: as §1, §2, §3, §4

## CCCCC[C@H](O)/C=C/[C@@H]1[C@H]2C/C(=C/CCCC(=O)O)O[C@H]2C[C@H]1O [Epoprostenol alone, (5Z, 9α, 111α, 13E, 15)-6,9-epoxy-11,15-dihydroxyprosta-5,13-dien-1-oic acid, sodium salt]
[1]; cardiac index, mean (SD in the next cell)
  CI, % mean change: 37.9%
[1]; mean (SD in the next cell)
  CI, absolute change: 0.57 L/min/m^2
  TPR, absolute change: −386 dyn*sec/cm^5
  mPAP, absolute change: −1.6 mmHg
[1]; median (in brackets)
  CI, % median change: (30.0%)
  TPR, % median change: (−14.3%)
[1]; mean right atrial pressure, mean (SD in the next cell)
  mRAP, absolute change: 0.3 mmHg
[1]; total pulmonary resistance, mean (SD in the next cell)
  TPR, % mean change: −22.6%
[2]
  Heart Rate (bpm), median change from baseline to week 16: 7.0 bpm
  Systolic blood pressure (mmHg), change from baseline to week 16: −9.8 ± 10.9%
[3]; human, in vivo
  FLUSHING, %: 45.5%
  FLUSHING, No.: 5
  HYPOTENSION, %: 18.2%
  HYPOTENSION, No.: 2
  PAIN IN JAW, %: 90.9%
  PAIN IN JAW, No.: 10
[3]; number of patients with the adverse event, 11 patients epoprostenol alone, 22 bosentan with epoprostenol
  HEADACHE, No.: 4
[3]; percent of patients with the adverse event
  HEADACHE, %: 36.4%
